# Measurements published in paper PMC11562385 (RSC Chemical Biology, 2024).
# Where two headings read alike, the source gives them in different places. Square brackets hold non-standard residues; d marks the D form. Peptide text beside a SMILES is read from it. * marks the point of attachment. Dab = NCC[C@H](N)C(=O)O; Dap = NC[C@H](N)C(=O)O; Acryloyl = C=CC(=O)*
# How the values were obtained:
# [1] = biological target: T1, PD1:PDL1 interaction (Homo sapiens, UniProt Q15116); assay: PD1/PDL1 immunoblocking ELISA (BPS Bioscience kit cat # 72005); assay type: binding
# T1 construct: purchased BPS Bioscience 72005
# T1 sequence (Q15116 25-167 limits assumed): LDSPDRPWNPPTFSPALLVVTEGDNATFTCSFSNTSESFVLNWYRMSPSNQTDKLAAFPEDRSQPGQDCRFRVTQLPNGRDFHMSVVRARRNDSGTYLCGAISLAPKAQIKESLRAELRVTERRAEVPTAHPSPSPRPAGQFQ
# Method: Original loops with Phe/Trp and their Gly-derived analogs. Experimental EC50 values from inhibitory dose–response curves. Error bars indicate the mean ± SD, (n = 3). […]
# SDS -Pages, buffers, and stain were purchased from Fisher
# 8. Immunoblocking ELISA Assay
# Peptide inhibitor stock solutions were prepared in the concentration range of approximately 1-5 mM in DMSO. […]
# plate was then washed and blocked with blocking buffer for 1 h at room temperature. Inhibitor solutions (ranging from 0.01 to 100 μM) and a blank solution (DMSO/PBS buffer) were added to designated wells. To initiate the […]
# inhibitor solutions. After a 2 h incubation at room temperature, the plate was washed and blocked again for 10 min. Streptavidin-HRP (diluted at 1 : 1000) was added and incubated for 1 h at room temperature with gentle shaking. The plate was washed and blocked once more for 10 min. ELISA ECL substrate was added, and the resulting chemoluminescence was immediately measured in a luminometer (FLUOstar OPTIMA, BMG Labtech).
# The luminescence value of the blank was subtracted from all readings according to the manufacturer's
# [2] = Variable-temperature CD melting curves (CD-melts at 228±2 nm and 202±2 nm), individual and global two-state fits; assay type: physicochemical; design: DSo: unit not given here
# Method: Recently, our laboratory brought forward a novel synthetic technology for the synthesis of acyclic β-hairpins with long loops. […] To compare hairpins’ stability, both regular (R) and bulged (B) scaffolds were crafted around a flexible 10-residue model loop (G4K2G4) and analyzed by CD (circular dichroism) spectroscopy (Fig. 2(A), see ESI, ^† Table S5). The […] structure of these model scaffolds 1avs.2a in solution were recorded in the far-UV CD spectra. […] The CD-exciton intensity was therefore used as a global probe to determine the %-folding of ADAPTins and to obtain melting curves corresponding to the hairpin fraying mechanism upon a gradual increase of temperature (0 to 95 °C).[68] […] In addition, NMR (nuclear magnetic resonance) chemical shifts were measured to determine variations in backbone […] structures (Fig. 2(B)). Secondary chemical shift deviations (CSDs) were calculated against random coil values[69] for both ADAPTin scaffolds 1vs.2 to verify that the hairpins were folded and if any variation of conformational rigidity exist within the loops. […]
# Mass Spectrometer coupled to a Vanquish™ Neo UHPLC System (Thermo Scientific™). Peptide solutions for circular dichroism (CD) were prepared within a concentration range of 15-120 µM in a phosphate buffer (15 mM, […]
# measured accurately using a JASCO V-670 spectrophotometer relied on the combined molar absorptivity of Trp (ε280 = 5580 M-1 .cm-1 per Trp) and Tyr (ε280 = 1280 M-1 .cm-1 per Tyr) to determine each sample's concentration.
# CD spectra were recorded using a JASCO J-810 Spectropolarimeter equipped with a temperature controller module JASCO PFD-425S. Raw CD melting curves were processed in SpectraGryph, and fitting was performed in OriginPro 9.0 (Originlab Corporation, U.S.A.). NMR samples were prepared by reconstituting freeze -dried peptides (~ 1-5 mg) in mixture of water and DMSO -d6 (90:10 v/v) using 2,2-dimethyl-2-silapentane-5-sulfonate (DSS) as internal standard for chemical shifts (0 ppm), and spectra were recorded at 291 K (18 °C) unless otherwise stated. Chemical shifts ( δ) are reported in ppm. Samples for NMR experiments were prepared in a range of 3-10 mM of peptide in solution unless otherwise noted.
# [3] = ELISA, mean of three independent experiments, read-out: EC50 Value
smiles,measurement,setting,value
CSCC[C@H](NC(=O)[C@H](CC(=O)O)NC(=O)CNC(=O)[C@H](CCCNC(=N)N)NC(=O)[C@H](Cc1ccc(O)cc1)NC(=O)[C@H](CC(=O)O)NC(=O)[C@H](CCCNC(=N)N)NC(=O)[C@H](Cc1c[nH]c2ccccc12)NC(=O)[C@@H](NC(=O)[C@H](Cc1c[nH]c2ccccc12)NC(=O)[C@@H](N)CCCNC(=N)N)C(C)C)C(=O)NCC(=O)N[C@@H](Cc1ccccc1)C(=O)N[C@@H](CC(=O)O)C(=O)N[C@@H](Cc1c[nH]c2ccccc12)C(=O)N[C@H](C(=O)N[C@@H](Cc1c[nH]c2ccccc12)C(=O)N[C@@H](CCC(=O)O)C(=O)O)C(C)C [1b] (H-RWVWRDYRGDMGFDWVWE-OH),EC50,[1]; [3],7080 nM
same,LE (ligand efficiency),"[1]; LE = -RTln(EC50)/HA, HA = non-hydrogen atoms omitting the strap (RWV•••VWE)",0.06
same,EC50,"[1]; [PD1•PDL1] blocking EC50, Fig. 3B, cut-off bars of congeneric pairs (Phe/Trp vs Gly), n = 3",> 5000 nM
same,ΔGF0,"[2]; CD-melt at 228±2 nm, individual two-state Gibbs-Helmholtz fit (Origin 9.0), 0-95 °C, phosphate buffer 15 mM pH 6.5 ± MeOH",-0.64 ± 0.01 kcal/mol
same,DCp (fitted value),"[2]; CD-melt of 1b, c 3.4e-5 M, l 0.1 cm, two-state fit in OriginPro",-40.77 cal/(deg.mol)
same,DHm (fitted value),"[2]; CD-melt of 1b, c 3.4e-5 M, l 0.1 cm, two-state fit in OriginPro, enthalpy at Tm",-9.84462 kcal/mol
same,"cF(18 oC), fraction folded","[2]; CD-melt of 1b, two-state fit in OriginPro, 18 °C",81%
same,TDSo,"[2]; CD-melt of 1b, two-state fit in OriginPro, standard-state entropic term",-8.2949 kcal/mol
same,DHo,"[2]; CD-melt of 1b, two-state fit in OriginPro, standard-state folding enthalpy",-8.9431 kcal/mol
same,DSo,"[2]; CD-melt of 1b, two-state fit in OriginPro, standard-state folding entropy",-27.84
same,DGo,"[2]; CD-melt of 1b, two-state fit in OriginPro, standard-state folding free energy",-0.6482 kcal/mol
same,Tm,"[2]; CD-melt of 1b, two-state fit in OriginPro, the fitted Tm restated without a unit (apparently °C)",47 °C
same,%fold 291K,"[2]; CD-melt of 1b, two-state fit, 291 K",81%
same,%fold 310K,"[2]; CD-melt of 1b, two-state fit, 310 K",62%
same,Tm (fitted value),"[2]; CD-melt of 1b, θ - θcoil(95) vs T 0-95 °C, c 3.4e-5 M, l 0.1 cm, two-state fit in OriginPro",320.113 K
same,TM (°C),"[2]; Fig. 2, CD-melts of regular vs bulged scaffolds",47 °C
same,Tm,"[2]; Table S5, individual fit, 228±2 nm",46.9 oC
same,Hairpin %-fold 291K,"[2]; Table S5, individual fit, 291 K",81 ± 1%
same,Hairpin %-fold 310K,"[2]; Table S5, individual fit, 310 K",62 ± 1%
same,-TΔSF0,[2]; as E16,8.29 ± 0.02 kcal/mol
same,ΔCpF0,[2]; as E16,-41 ± 1 cal.deg-1.mol-1
same,ΔHF0,[2]; as E16,-8.94 ± 0.02 kcal/mol
same,ΔHm,[2]; as E16,-9.84 ± 0.01 kcal/mol
same,VT-CD %-fold,"[2]; folded fraction (χF) at 25 °C from CD-melts, (R) regular / (B) bulged fold, phosphate buffer 15 mM pH 6.5, up to 20% MeOH",81% (R)
same,VT-CD Tm (°C),"[2]; melting temperature from CD-melts, phosphate buffer 15 mM pH 6.5, up to 20% MeOH",47 °C
CC(C)C[C@H](NC(=O)[C@H](CCC(N)=O)NC(=O)[C@H](CCCNC(=N)N)NC(=O)[C@H](C)NC(=O)[C@@H](NC(=O)[C@H](Cc1c[nH]c2ccccc12)NC(=O)[C@@H](N)CCCNC(=N)N)C(C)C)C(=O)N[C@@H](Cc1ccc(O)cc1)C(=O)N[C@@H](Cc1ccc(O)cc1)C(=O)N[C@@H](Cc1ccccc1)C(=O)N[C@@H](CC(=O)O)C(=O)N[C@@H](Cc1ccc(O)cc1)C(=O)N[C@@H](Cc1c[nH]c2ccccc12)C(=O)N[C@H](C(=O)N[C@@H](Cc1c[nH]c2ccccc12)C(=O)N[C@@H](CCC(=O)O)C(=O)O)C(C)C [2m] (H-RWVARQLYYFDYWVWE-OH),EC50,[1]; [3],144 nM
CSCC[C@H](NC(=O)CNC(=O)[C@H](CCC(=O)O)NC(=O)[C@H](CCCNC(=N)N)NC(=O)[C@H](C)NC(=O)[C@@H](NC(=O)[C@H](Cc1c[nH]c2ccccc12)NC(=O)[C@@H](N)CCCNC(=N)N)C(C)C)C(=O)N[C@@H](CC(N)=O)C(=O)N[C@H](C(=O)N[C@@H](CC(=O)O)C(=O)N[C@@H](Cc1c[nH]c2ccccc12)C(=O)N[C@@H](Cc1ccc(O)cc1)C(=O)N[C@@H](Cc1ccccc1)C(=O)N[C@@H](CC(=O)O)C(=O)N[C@@H](Cc1ccc(O)cc1)C(=O)N[C@@H](Cc1c[nH]c2ccccc12)C(=O)N[C@@H](Cc1cnc[nH]1)C(=O)N[C@@H](Cc1c[nH]c2ccccc12)C(=O)N[C@@H](CCC(=O)O)C(=O)O)[C@@H](C)O [2n] (H-RWVAREGMNTDWYFDYWHWE-OH),EC50,[1]; [3],252 nM
CSCC[C@H](NC(=O)CNC(=O)[C@H](CCC(=O)O)NC(=O)[C@H](CCCNC(=N)N)NC(=O)[C@H](C)NC(=O)[C@@H](NC(=O)[C@H](Cc1c[nH]c2ccccc12)NC(=O)[C@@H](N)CCCNC(=N)N)C(C)C)C(=O)N[C@@H](CC(N)=O)C(=O)N[C@H](C(=O)N[C@@H](CC(=O)O)C(=O)NCC(=O)N[C@@H](Cc1ccc(O)cc1)C(=O)N[C@@H](Cc1ccccc1)C(=O)N[C@@H](CC(=O)O)C(=O)N[C@@H](Cc1ccc(O)cc1)C(=O)N[C@@H](Cc1c[nH]c2ccccc12)C(=O)N[C@@H](Cc1cnc[nH]1)C(=O)N[C@@H](Cc1c[nH]c2ccccc12)C(=O)N[C@@H](CCC(=O)O)C(=O)O)[C@@H](C)O [2o] (H-RWVAREGMNTDGYFDYWHWE-OH),EC50,[1],349 nM
C=CC(=O)NCC[C@H](NC(=O)CNC(=O)[C@H](CC(=O)O)NC(=O)[C@@H](NC(=O)[C@H](CC(N)=O)NC(=O)[C@H](CCSC)NC(=O)CNC(=O)[C@H](CCC(=O)O)NC(=O)[C@H](CCCNC(=N)N)NC(=O)[C@H](C)NC(=O)[C@@H](NC(=O)[C@H](Cc1c[nH]c2ccccc12)NC(=O)[C@@H](N)CCCNC(=N)N)C(C)C)[C@@H](C)O)C(=O)N[C@@H](Cc1ccccc1)C(=O)N[C@@H](CC(N)=O)C(=O)N[C@@H](Cc1ccc(O)cc1)C(=O)N[C@@H](Cc1c[nH]c2ccccc12)C(=O)N[C@H](C(=O)N[C@@H](Cc1c[nH]c2ccccc12)C(=O)N[C@@H](CCC(=O)O)C(=O)O)C(C)C [2pa] (H-RWVAREGMNTDG[Dab](Acryloyl)FNYWVWE-OH),EC50,[1]; [3],950 nM
C=CC(=O)NC[C@H](NC(=O)CNC(=O)[C@H](CC(=O)O)NC(=O)[C@@H](NC(=O)[C@H](CC(N)=O)NC(=O)[C@H](CCSC)NC(=O)CNC(=O)[C@H](CCC(=O)O)NC(=O)[C@H](CCCNC(=N)N)NC(=O)[C@H](C)NC(=O)[C@@H](NC(=O)[C@H](Cc1c[nH]c2ccccc12)NC(=O)[C@@H](N)CCCNC(=N)N)C(C)C)[C@@H](C)O)C(=O)N[C@@H](Cc1ccccc1)C(=O)N[C@@H](CC(N)=O)C(=O)N[C@@H](Cc1ccc(O)cc1)C(=O)N[C@@H](Cc1c[nH]c2ccccc12)C(=O)N[C@H](C(=O)N[C@@H](Cc1c[nH]c2ccccc12)C(=O)N[C@@H](CCC(=O)O)C(=O)O)C(C)C [2pb] (H-RWVAREGMNTDG[Dap](Acryloyl)FNYWVWE-OH),EC50,[1]; [3],3040 nM
CC[C@H](C)[C@H](NC(=O)[C@H](Cc1ccc(O)cc1)NC(=O)[C@H](Cc1c[nH]c2ccccc12)NC(=O)[C@H](Cc1ccc(O)cc1)NC(=O)[C@H](CC(N)=O)NC(=O)CNC(=O)[C@H](Cc1ccc(O)cc1)NC(=O)[C@H](C)NC(=O)[C@H](CCCNC(=N)N)NC(=O)[C@H](C)NC(=O)[C@@H](NC(=O)[C@H](Cc1c[nH]c2ccccc12)NC(=O)[C@@H](N)CCCNC(=N)N)C(C)C)C(=O)N[C@@H](CC(=O)O)C(=O)N[C@H](C(=O)N[C@@H](Cc1c[nH]c2ccccc12)C(=O)N[C@@H](Cc1cnc[nH]1)C(=O)N[C@@H](Cc1c[nH]c2ccccc12)C(=O)N[C@@H](CCC(=O)O)C(=O)O)C(C)C [2q] (H-RWVARAYGNYWYIDVWHWE-OH),EC50,[1]; [3],230 nM
CC[C@H](C)[C@H](NC(=O)[C@H](Cc1ccc(O)cc1)NC(=O)CNC(=O)[C@H](Cc1ccc(O)cc1)NC(=O)[C@H](CC(N)=O)NC(=O)CNC(=O)[C@H](Cc1ccc(O)cc1)NC(=O)[C@H](C)NC(=O)[C@H](CCCNC(=N)N)NC(=O)[C@H](C)NC(=O)[C@@H](NC(=O)[C@H](Cc1c[nH]c2ccccc12)NC(=O)[C@@H](N)CCCNC(=N)N)C(C)C)C(=O)N[C@@H](CC(=O)O)C(=O)N[C@H](C(=O)N[C@@H](Cc1c[nH]c2ccccc12)C(=O)N[C@@H](Cc1cnc[nH]1)C(=O)N[C@@H](Cc1c[nH]c2ccccc12)C(=O)N[C@@H](CCC(=O)O)C(=O)O)C(C)C [2r] (H-RWVARAYGNYGYIDVWHWE-OH),EC50,[1]; [3],170 nM
